Tests used:
[1] = test system: Escherichia coli; assay: Synergistic antibacterial activity against carbapenem-resistant Escherichia coli 571307 assessed as reduction in microbial growth at 16 ug/ml measured after 16 to 18 hrs in presence of meropenem by microbial dilution method; format: functional; conditions: dose 16 µg/ml, time 16-18 hrs
[2] = test system: Escherichia coli; assay: Synergistic antibacterial activity against carbapenem-resistant Escherichia coli BAA-2471 assessed as reduction in microbial growth at 0.5 ug/ml measured after 16 to 18 hrs in presence of meropenem by microbial dilution method; format: functional; conditions: dose 0.5 µg/ml, time 16-18 hrs
[3] = test system: Escherichia coli; assay: Synergistic antibacterial activity against carbapenem-resistant Escherichia coli 567975 assessed as reduction in microbial growth at 4 ug/ml measured after 16 to 18 hrs in presence of imipenem by microbial dilution method; format: functional; conditions: dose 4 µg/ml, time 16-18 hrs
[4] = test system: Enterobacter cloacae; assay: Synergistic antibacterial activity against carbapenem-resistant Enterobacter cloacae BAA-2468 assessed as reduction in microbial growth at 8 ug/ml measured after 16 to 18 hrs in presence of imipenem by microbial dilution method; format: functional; conditions: dose 8 µg/ml, time 16-18 hrs
[5] = test system: Escherichia coli; assay: Synergistic antibacterial activity against carbapenem-resistant Escherichia coli 567975 assessed as reduction in microbial growth at 16 ug/ml measured after 16 to 18 hrs in presence of imipenem by microbial dilution method; format: functional; conditions: dose 16 µg/ml, time 16-18 hrs
[6] = Inhibition of IMP-1 (unknown origin) using FC5 as substrate preincubated for 10 mins followed by substrate addition and measured immediately by fluorescence based analysis; parameters: species or system Bacteria
[7] = test system: Klebsiella pneumoniae subsp. pneumoniae; assay: Synergistic antibacterial activity against carbapenem-resistant Klebsiella pneumoniae BAA-2470 assessed as reduction in microbial growth at 16 ug/ml measured after 16 to 18 hrs in presence of meropenem by microbial dilution method; format: functional; conditions: dose 16 µg/ml, time 16-18 hrs
[8] = test system: Escherichia coli; assay: Synergistic antibacterial activity against carbapenem-resistant Escherichia coli 541588 assessed as reduction in microbial growth at 4 ug/ml measured after 16 to 18 hrs in presence of imipenem by microbial dilution method; format: functional; conditions: dose 4 µg/ml, time 16-18 hrs
[9] = test system: Klebsiella pneumoniae subsp. pneumoniae; assay: Synergistic antibacterial activity against carbapenem-resistant Klebsiella pneumoniae subsp. pneumoniae BAA-2472 assessed as reduction in microbial growth at 8 ug/ml measured after 16 to 18 hrs in presence of imipenem by microbial dilution method; format: functional; conditions: dose 8 µg/ml, time 16-18 hrs
[10] = test system: Escherichia coli; assay: Synergistic antibacterial activity against carbapenem-resistant Escherichia coli BAA-2469 assessed as reduction in microbial growth at 8 ug/ml measured after 16 to 18 hrs in presence of meropenem by microbial dilution method; format: functional; conditions: dose 8 µg/ml, time 16-18 hrs
[11] = test system: Klebsiella pneumoniae; assay: Synergistic antibacterial activity against carbapenem-resistant Klebsiella pneumoniae 552439 assessed as reduction in microbial growth at 16 ug/ml measured after 16 to 18 hrs in presence of imipenem by microbial dilution method; format: functional; conditions: dose 16 µg/ml, time 16-18 hrs
[12] = test system: Escherichia coli; assay: Synergistic antibacterial activity against carbapenem-resistant Escherichia coli BAA-2471 assessed as reduction in microbial growth at 0.5 ug/ml measured after 16 to 18 hrs in presence of imipenem by microbial dilution method; format: functional; conditions: dose 0.5 µg/ml, time 16-18 hrs
[13] = target: Metallo-beta-lactamase type 2 (Bacteria) (UniProt C7C422); assay: Induction of thermal stabilization of NDM-1 (unknown origin) assessed as melting temperature at 25 uM by differential scanning fluorimetry analysis
[14] = target: Metallo-beta-lactamase type 2 (Bacteria) (UniProt C7C422); assay: Induction of thermal stabilization of NDM-1 (unknown origin) assessed as melting temperature at 12.5 uM by differential scanning fluorimetry analysis
[15] = test system: HepG2; assay: Cytotoxicity in human HepG2 cells assessed as inhibition of cell growth measured after 24 hrs by MTT assay; format: functional, cell-based; conditions: HepG2, 24 h
[16] = test system: Klebsiella pneumoniae; assay: Synergistic antibacterial activity against carbapenem-resistant Klebsiella pneumoniae BAA-2473 assessed as reduction in microbial growth at 0.5 ug/ml measured after 16 to 18 hrs in presence of imipenem by microbial dilution method; format: functional; conditions: dose 0.5 µg/ml, time 16-18 hrs
[17] = test system: Escherichia coli; assay: Synergistic antibacterial activity against carbapenem-resistant Escherichia coli BAA-2469 assessed as reduction in microbial growth at 8 ug/ml measured after 16 to 18 hrs in presence of imipenem by microbial dilution method; format: functional; conditions: dose 8 µg/ml, time 16-18 hrs
[18] = test system: Escherichia coli; assay: Synergistic antibacterial activity against carbapenem-resistant Escherichia coli 571307 assessed as reduction in microbial growth at 4 ug/ml measured after 16 to 18 hrs in presence of imipenem by microbial dilution method; format: functional; conditions: dose 4 µg/ml, time 16-18 hrs
[19] = test system: Klebsiella pneumoniae; assay: Synergistic antibacterial activity against carbapenem-resistant Klebsiella pneumoniae 565345 assessed as reduction in microbial growth at 4 ug/ml measured after 16 to 18 hrs in presence of imipenem by microbial dilution method; format: functional; conditions: dose 4 µg/ml, time 16-18 hrs
[20] = test system: Escherichia coli; assay: Synergistic antibacterial activity against carbapenem-resistant Escherichia coli BAA-2469 assessed as reduction in microbial growth at 16 ug/ml measured after 16 to 18 hrs in presence of meropenem by microbial dilution method; format: functional; conditions: dose 16 µg/ml, time 16-18 hrs
[21] = test system: Escherichia coli; assay: Synergistic antibacterial activity against carbapenem-resistant Escherichia coli BAA-2471 assessed as reduction in microbial growth at 16 ug/ml measured after 16 to 18 hrs in presence of imipenem by microbial dilution method; format: functional; conditions: dose 16 µg/ml, time 16-18 hrs
[22] = target: Metallo-beta-lactamase type 2 (Bacteria) (UniProt C7C422); assay: Induction of thermal stabilization of NDM-1 (unknown origin) assessed as melting temperature at 3.12 uM by differential scanning fluorimetry analysis
[23] = test system: Klebsiella pneumoniae subsp. pneumoniae; assay: Synergistic antibacterial activity against carbapenem-resistant Klebsiella pneumoniae subsp. pneumoniae BAA-2472 assessed as reduction in microbial growth at 0.5 ug/ml measured after 16 to 18 hrs in presence of meropenem by microbial dilution method; format: functional; conditions: dose 0.5 µg/ml, time 16-18 hrs
[24] = test system: Klebsiella pneumoniae; assay: Synergistic antibacterial activity against carbapenem-resistant Klebsiella pneumoniae BAA-2473 assessed as reduction in microbial growth at 8 ug/ml measured after 16 to 18 hrs in presence of imipenem by microbial dilution method; format: functional; conditions: dose 8 µg/ml, time 16-18 hrs
[25] = target: Metallo-beta-lactamase type 2 (Bacteria) (UniProt C7C422); assay: Induction of thermal stabilization of NDM-1 (unknown origin) assessed as melting temperature at 6.25 uM by differential scanning fluorimetry analysis
[26] = test system: Escherichia coli; assay: Synergistic antibacterial activity against carbapenem-resistant Escherichia coli 567975 assessed as reduction in microbial growth at 16 ug/ml measured after 16 to 18 hrs in presence of meropenem by microbial dilution method; format: functional; conditions: dose 16 µg/ml, time 16-18 hrs
[27] = test system: Escherichia coli; assay: Synergistic antibacterial activity against carbapenem-resistant Escherichia coli BAA-2469 assessed as reduction in microbial growth at 0.5 ug/ml measured after 16 to 18 hrs in presence of meropenem by microbial dilution method; format: functional; conditions: dose 0.5 µg/ml, time 16-18 hrs
[28] = test system: Escherichia coli; assay: Synergistic antibacterial activity against carbapenem-resistant Escherichia coli BAA-2471 assessed as reduction in microbial growth at 8 ug/ml measured after 16 to 18 hrs in presence of meropenem by microbial dilution method; format: functional; conditions: dose 8 µg/ml, time 16-18 hrs
[29] = Octanol/aqueous buffer distribution coefficient, log D of the compound at pH 7.4 incubated for 4 hrs under shaking condition by HPLC analysis; format: physicochemical
[30] = test system: Klebsiella pneumoniae subsp. pneumoniae; assay: Synergistic antibacterial activity against carbapenem-resistant Klebsiella pneumoniae subsp. pneumoniae BAA-2472 assessed as reduction in microbial growth at 8 ug/ml measured after 16 to 18 hrs in presence of meropenem by microbial dilution method; format: functional; conditions: dose 8 µg/ml, time 16-18 hrs
[31] = Plasma protein binding in mouse assessed as unbound fraction at 10 uM measured after 5 hrs by LC-MS/MS analysis; format: ADME, cell-free
[32] = test system: Klebsiella pneumoniae; assay: Synergistic antibacterial activity against carbapenem-resistant Klebsiella pneumoniae BAA-2473 assessed as reduction in microbial growth at 8 ug/ml measured after 16 to 18 hrs in presence of meropenem by microbial dilution method; format: functional; conditions: dose 8 µg/ml, time 16-18 hrs

Sequence of Metallo-beta-lactamase type 2 (Bacteria) (C7C422 whole entry): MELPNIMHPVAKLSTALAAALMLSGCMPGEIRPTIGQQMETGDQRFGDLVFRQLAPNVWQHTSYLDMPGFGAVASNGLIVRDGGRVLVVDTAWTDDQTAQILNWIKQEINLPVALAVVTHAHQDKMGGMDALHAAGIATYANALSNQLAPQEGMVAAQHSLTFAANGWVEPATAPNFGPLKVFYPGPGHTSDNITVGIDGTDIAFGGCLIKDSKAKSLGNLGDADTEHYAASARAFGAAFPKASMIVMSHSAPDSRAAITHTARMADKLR

With `COc1ccc(Cl)cc1-c1c(C(=O)O)[nH]c2c1CCc1ccccc1-2` as the compound, how does the MIC [1] read?
Its MIC is 0.5 µg/mL.

And the MIC [2]?
The MIC was 64 µg/mL.

And the MIC [3]?
The MIC was 8 µg/mL.

And the MIC [4]?
The MIC was 64 µg/mL.

What about the MIC [5] of the same compound?
Its MIC is 1 µg/mL.

And the IC50 [6]?
The IC50 was 14 nM.

What about the MIC [7] of the same compound?
The MIC was 4 µg/mL.

What about the MIC [8] of the same compound?
The MIC was 1 µg/mL.

And the MIC [9]?
The MIC was 32 µg/mL.

What about the MIC [10] of the same compound?
The MIC was 4 µg/mL.

What about the MIC [11] of the same compound?
The MIC was 1 µg/mL.

What about the MIC [12] of the same compound?
The MIC was 32 µg/mL.

What about the Tm [13] of the same compound?
Its Tm is 19 °C.

And the Tm [14]?
The Tm was 18 °C.

What about the IC50 [15] of the same compound?
Its IC50 is > 400000 nM.

What about the MIC [16] of the same compound?
Its MIC is 64 µg/mL.

And the MIC [17]?
Its MIC is 8 µg/mL.

And the MIC [18]?
The MIC was 4 µg/mL.

And the MIC [19]?
Its MIC is 32 µg/mL.

What about the MIC [20] of the same compound?
The MIC was 2 µg/mL.

And the MIC [21]?
Its MIC is 8 µg/mL.

And the Tm [22]?
The Tm was 14 °C.

What about the MIC [23] of the same compound?
Its MIC is > 64 µg/mL.

And the MIC [24]?
Its MIC is 16 µg/mL.

And the ΔTm [25]?
Its ΔTm is 17 °C.

And the MIC [26]?
The MIC was < 0.5 µg/mL.

And the MIC [27]?
Its MIC is 16 µg/mL.

And the MIC [28]?
Its MIC is 16 µg/mL.

And the logD at 4 h [29]?
Its logD at 4 h is 2.58.

And the MIC [30]?
The MIC was 64 µg/mL.

What about the fraction unbound at 5 h, 10 µM [31] of the same compound?
The fraction unbound at 5 h, 10 µM was 0.952.

What about the MIC [32] of the same compound?
Its MIC is 16 µg/mL.
